Data reported in ChEMBL document CHEMBL3872220, “Amphiphilic xanthones as a potent chemical entity of anti-mycobacterial agents with membrane-targeting properties” (Eur J Med Chem, 2016).
Values after ≈ are worked out from the molar mass of the structure shown.

test system: Mycobacterium tuberculosis variant bovis; assay: Antimycobacterial activity against Mycobacterium bovis BCG ATCC 35734 after 5 days by broth dilution assay; format: functional; settings: ATCC 35734, 120 h

| SMILES | MIC90 [µM] |
| --- | --- |
| CCN(CC)CC(O)COc1cc2oc3cc(OCC(O)CN(CC)CC)c(OC)c(CC=C(C)C)c3c(=O)c2c(O)c1CC=C(C)C (centres undefined) | 6.4 (≈ 4.28 µg/mL) |
| COc1c(OCC(=O)NC(CCCNC(=N)N)C(N)=O)cc2oc3cc(OCC(=O)NC(CCCNC(=N)N)C(N)=O)c(CC=C(C)C)c(O)c3c(=O)c2c1CC=C(C)C (centres undefined) | > 30 |
| COc1c(OCC(O)CNCCNC(=N)N)cc2oc3cc(OCC(O)CNCCNC(=N)N)c(CC=C(C)C)c(O)c3c(=O)c2c1CC=C(C)C (centres undefined) | > 30 |
| CCCN(CCC)CC(O)COc1cc2oc3cc(OCC(O)CN(CCC)CCC)c(OC)c(CC=C(C)C)c3c(=O)c2c(O)c1CC=C(C)C (centres undefined) | 6.4 (≈ 4.64 µg/mL) |
| COc1c(OCC(O)CNC(CO)(CO)CO)cc2oc3cc(OCC(O)CNC(CO)(CO)CO)c(CC=C(C)C)c(O)c3c(=O)c2c1CC=C(C)C (centres undefined) | > 30 |
| COc1c(OCCCCN2CCOCC2)cc2oc3cc(OCCCCN4CCOCC4)c(CC=C(C)C)c(OCCCCN4CCOCC4)c3c(=O)c2c1CC=C(C)C | 12.8 (≈ 10.7 µg/mL) |
| COc1c(OCCCCN(C)C)cc2oc3cc(OCCCCN(C)C)c(CCC(C)C)c(O)c3c(=O)c2c1CCC(C)C | 6.4 (≈ 3.92 µg/mL) |
| CCCCN(CC)CCCCOc1cc2oc3cc(OCCCCN(CC)CCCC)c(OC)c(CC=C(C)C)c3c(=O)c2c(O)c1CC=C(C)C | 3.2 (≈ 2.31 µg/mL) |
| CCN(CC)CCCOc1cc2oc3cc(OCCCN(CC)CC)c(OC)c(CC=C(C)C)c3c(=O)c2c(O)c1CC=C(C)C | 6.4 (≈ 4.08 µg/mL) |
| NNC(=O)c1ccncc1 [ISONIAZID] | 6.25 (≈ 0.857 µg/mL) |
| COc1c(OCC(O)CNCCNCCNCCN)cc2oc3cc(OCC(O)CNCCNCCNCCN)c(CC=C(C)C)c(O)c3c(=O)c2c1CC=C(C)C (centres undefined) | > 30 |
| COc1c(OCC(O)CNCCN)cc2oc3cc(OCC(O)CNCCN)c(CC=C(C)C)c(O)c3c(=O)c2c1CC=C(C)C (centres undefined) | > 30 |
| CO[C@H]1/C=C/O[C@@]2(C)Oc3c(C)c(O)c4c(O)c(c(/C=N/N5CCN(C)CC5)c(O)c4c3C2=O)NC(=O)/C(C)=C\C=C\[C@H](C)[C@H](O)[C@@H](C)[C@@H](O)[C@@H](C)[C@H](OC(C)=O)[C@@H]1C [RIFAMPIN] | 0.02 (≈ 0.0165 µg/mL) |
| CCN(CC)CCCCCCCOc1cc2oc3cc(OCCCCCCCN(CC)CC)c(OC)c(CC=C(C)C)c3c(=O)c2c(O)c1CC=C(C)C | 6.4 (≈ 4.79 µg/mL) |
| COC(=O)C(CCCNC(=N)N)NC(=O)COc1cc2oc3cc(OCC(=O)NC(CCCNC(=N)N)C(=O)OC)c(OC)c(CC=C(C)C)c3c(=O)c2c(O)c1CC=C(C)C (centres undefined) | 12.8 (≈ 11.1 µg/mL) |
| COC(=O)C(Cc1cnc[nH]1)NC(=O)COc1cc2oc3cc(OCC(=O)NC(Cc4cnc[nH]4)C(=O)OC)c(OC)c(CC=C(C)C)c3c(=O)c2c(O)c1CC=C(C)C (centres undefined) | > 30 |
| CC[C@@H](CO)NCCN[C@@H](CC)CO [ETHAMBUTOL] | 6.25 (≈ 1.28 µg/mL) |
| CCN(CC)CCOc1cc2oc3cc(OCCN(CC)CC)c(OC)c(CC=C(C)C)c3c(=O)c2c(O)c1CC=C(C)C | 6.4 (≈ 3.9 µg/mL) |
| CCN(CC)CCCCOc1ccc2c(=O)c3c(O)cc(OCCCCN(CC)CC)cc3oc2c1 | > 30 |
| CN[C@@H]1[C@H](O[C@H]2[C@H](O[C@H]3[C@H](O)[C@@H](O)[C@H](N=C(N)N)[C@@H](O)[C@@H]3N=C(N)N)O[C@@H](C)[C@]2(O)C=O)O[C@@H](CO)[C@H](O)[C@H]1O [STREPTOMYCIN] | 0.39 (≈ 0.227 µg/mL) |
| CCN(CC)CCCCOc1cc2oc3cc(OCCCCN(CC)CC)c(OC)c(CCC(C)C)c3c(=O)c2c(O)c1CCC(C)C | 6.4 (≈ 4.28 µg/mL) |
| COc1c(OCCCCN2CCSCC2)cc2oc3cc(OCCCCN4CCSCC4)c(CC=C(C)C)c(O)c3c(=O)c2c1CC=C(C)C | 30 (≈ 21.8 µg/mL) |
| CCN(CC)CCCCOc1cc2oc3cc(OCCCCN(CC)CC)c(OC)c(CC=C(C)C)c3c(=O)c2c(OCCCCN(CC)CC)c1CC=C(C)C | 6.4 (≈ 5.07 µg/mL) |

test system: Mycobacterium tuberculosis variant bovis; assay: Bactericidal activity against Mycobacterium bovis BCG ATCC 35734 assessed as log reduction in bacterial colonies up to 8 times MIC measured after 24 hrs by time-kill assay; format: functional, Mycobacterium tuberculosis variant bovis BCG; settings: not given

| SMILES | Activity |
| --- | --- |
| NNC(=O)c1ccncc1 [ISONIAZID] | 2.6 |
